For 79 compounds, melting point results are on record in US6500817B1, “Thiazolyl urea derivatives and their utilization as antiviral agents” (Bayer Aktiengesellschaft, priority 1999, dated 2002).

Bounds are passed on as bounds.

`CCOc1ccc(NC(=O)N(CC2CCCN2CC)c2nc(C)c(S(=O)(=O)N(C)C)s2)cc1` (stereo not shown): the melting point (usually the temperature of the solid-liquid transition) stood at 158 °C.
The figure for `Cc1nc(N(C)C(=O)Nc2ccc(N3CCOCC3)cc2)sc1S(=O)(=O)N(C)CCn1ccnn1` is 172 °C; for `CCCN(C(=O)Nc1ccc(OCC)cc1)c1nc(C)c(S(=O)(=O)NC2CC2)s1` it is 141 °C; for `CN(C(=O)Nc1ccc(Oc2ccccc2)cc1)c1nc(Cl)c(S(=O)(=O)N(C)C)s1` it is 127 °C.
The figure for `CNS(=O)(=O)c1sc(N(CCCN(C)C)C(=O)Nc2ccc(-c3ccccc3)cc2)nc1C` is 196 °C; for `COC(=O)c1ccc(NC(=O)N(C)C2=NC(Cl)C(S(=O)(=O)N(C)C)S2)cc1` (stereo not shown) it is 220 °C; for `Cc1nc(N(C)C(=O)Nc2ccc(N3CCOCC3)cc2)sc1S(=O)(=O)N(C)C1CC1` it is 198 °C.
The same measure for `CCCOc1ccc(NC(=O)N(C)c2nc(C)c(S(=O)(=O)N(C)C)s2)cc1`: 147 °C; for `CC(=O)Nc1cc(N2CCCC2)ccc1NC(=O)N(C)c1nc(C)c(S(=O)(=O)N(C)C)s1` [169]: 162 to 163 °C.
Compound `CCOc1ccc(NC(=O)N(CCCNC(=O)OC(C)(C)C)c2nc(C)c(S(=O)(=O)NCC(F)(F)F)s2)cc1` [135] showed a melting point of 161 °C.
The figure for `CCOc1ccc(NC(=O)N(c2nc(C)c(S(=O)(=O)N(C)C)s2)C(C)CC)cc1` (stereo not shown) is 130 °C; for `CCOc1ccc(NC(=O)N(Cc2ccccn2)c2nc(C)c(S(=O)(=O)NC)s2)cc1` it is 194 °C; for `CNS(=O)(=O)c1sc(N(C)C(=O)Nc2ccc(C3=NOCCO3)cc2)nc1C` it is 192 to 194 °C.
`CCOc1ccc(NC(=O)N(CC(C)C)c2nc(C)c(S(=O)(=O)N(C)C)s2)cc1` registered a melting point of 173 °C.
Compound `Cc1nc(N(C)C(=O)Nc2ccc(N3CC=CC3)cc2)sc1S(=O)(=O)NC1CC1` showed a melting point of 186 to 187 °C.
As for `CCOc1ccc(NC(=O)N(Cc2ccncc2)c2nc(C)c(S(=O)(=O)N(C)C)s2)cc1`, the melting point worked out at 188 °C.
The figure for `CNS(=O)(=O)c1sc(N(CCCN(C)c2ccccc2)C(=O)Nc2ccc(-c3ccccc3)cc2)nc1C` is 148 °C; for `CCOc1ccc(NC(=O)N(C)c2nc(C)c(S(=O)(=O)NCCn3ccnn3)s2)cc1` it is 154 °C.
The same measure for `CCCN(C(=O)Nc1ccc(OCC)cc1)c1nc(C)c(S(=O)(=O)NCc2ccccc2)s1`: 145 °C; for `Cc1nc(N(C)C(=O)Nc2ccc(N3CCC3)cc2)sc1S(=O)(=O)N(C)C`: 193 to 195 °C.
The figure for `CNS(=O)(=O)c1sc(N(CCOC)C(=O)Nc2ccc(-c3ccccc3)cc2)nc1C` is 170 °C; for `CCc1nc(N(CCCO)C(=O)Nc2ccc(N3CCOCC3)cc2)sc1S(=O)(=O)NC` it is 169 °C.
`C=CCN(C(=O)Nc1ccc(OCC)cc1)c1nc(C)c(S(=O)(=O)NC)s1`: the melting point turned out to be 162 °C.
The same measure for `CCOc1ccc(NC(=O)N(C)c2ncc(S(=O)(=O)NCc3ccccc3)s2)cc1`: 171 °C; for `COCCN(C(=O)Nc1ccc(-c2ccccc2)cc1)c1nc(C)c(S(=O)(=O)NC2CC2)s1`: 160 °C.
In turn, `Cc1nc(N(C)C(=O)Nc2ccc(N3CC=CC3)cc2)sc1S(=O)(=O)N(C)C` yielded a melting point of 185 °C.
The figure for `CNS(=O)(=O)c1sc(N(CCCN2CCCC2=O)C(=O)Nc2ccc(-c3ccccc3)cc2)nc1C` is 148 °C; for `CCCNS(=O)(=O)c1sc(N(CCC)C(=O)Nc2ccc(-c3ccccc3)cc2)nc1C` it is 137 °C.
The same measure for `CCOc1ccc(NC(=O)N(CC2CCCO2)c2nc(C)c(S(=O)(=O)NC)s2)cc1` (stereo not shown): 150 °C; for `CCOc1ccc(NC(=O)N(C)c2nc(C)c(S(=O)(=O)NC)s2)cc1`: 179 °C.
The figure for `CN(C(=O)Nc1ccc(N2CCOCC2)cc1)c1nc(Cl)c(S(=O)(=O)NCc2ccccc2)s1` is 201 °C; for `CN(C(=O)Nc1ccc(N2CCOCC2)c(F)c1)c1nc(Cl)c(S(=O)(=O)N(C)C)s1` it is 196 °C.
`CCN(C(=O)Nc1ccc(N2CCOCC2)cc1)c1nc(Cl)c(S(=O)(=O)N(C)C)s1` returned a melting point of 190 °C.
Compound `CCCN(C(=O)Nc1ccc(N2CCOCC2)cc1)c1nc(C)c(S(=O)(=O)NC)s1` had a melting point of 179 °C.
The figure for `Cc1nc(N(CCN(C)C)C(=O)Nc2ccc(-c3ccccc3)cc2)sc1S(N)(=O)=O` is 138 °C; for `CCOc1ccc(NC(=O)N(C)c2nc(C)c(S(=O)(=O)NCc3ccc4c(c3)OCO4)s2)cc1` it is 178 °C; for `CCOc1ccc(NC(=O)N(CCN(C)C)c2nc(CC)c(S(=O)(=O)NC)s2)cc1` it is 208 °C.
The same measure for `Cc1nc(N(C)C(=O)Nc2ccc(N3CCCC3)cc2)sc1S(=O)(=O)NCC1CC1`: 205 °C; for `CNS(=O)(=O)c1sc(N(CCN(C)C)C(=O)Nc2ccc(N3CCOCC3)cc2)nc1C`: 196 °C; for `CCCN(C(=O)Nc1ccc(OCC)cc1)c1nc(Cl)c(S(=O)(=O)N(C)C)s1`: 132 °C.
Compound `CCOc1ccc(NC(=O)N(CCNC(C)=O)c2nc(C)c(S(=O)(=O)N(C)C)s2)cc1` returned a melting point of 184 °C.
The same measure for `Cc1nc(N(CCN(C)C)C(=O)Nc2ccc(N3CCOCC3)cc2)sc1S(N)(=O)=O`: 123 °C; for `CCOc1ccc(NC(=O)N(CCOC)c2nc(C)c(S(=O)(=O)NC)s2)cc1`: 159 °C; for `CNS(=O)(=O)c1sc(N(Cc2ccncc2)C(=O)Nc2ccc(N3CCCC3)cc2)nc1C`: 208 °C.
The same measure for `Cc1nc(N(C)C(=O)Nc2ccc(-c3ccccc3)cc2)sc1S(N)(=O)=O`: 221 °C.
The same measure for `CCOc1ccc(NC(=O)N(Cc2ccccc2)c2nc(C)c(S(=O)(=O)N(C)C)s2)cc1`: 187 °C; for `Cc1nc(N(C)C(=O)Nc2ccc(N3CCCC3=O)cc2)sc1S(=O)(=O)N(C)C`: 195 °C (dec.).
`CCOc1ccc(NC(=O)N(CCCNC(=O)OC(C)(C)C)c2nc(C)c(S(=O)(=O)N(C)C)s2)cc1` registered a melting point of 130 °C.
The figure for `CCOc1ccc(NC(=O)N(CCOC)c2nc(C)c(S(=O)(=O)N(C)C)s2)cc1` is 162 °C; for `Cc1nc(N(C)C(=O)Nc2ccc(-c3ccccc3)cc2)sc1S(=O)(=O)N(C)C` it is 228 °C.
The same measure for `CCOc1ccc(NC(=O)N(Cc2nc3ccccc3[nH]2)c2nc(C)c(S(=O)(=O)NC)s2)cc1`: 197 °C; for `CCOc1ccc(NC(=O)N(C)c2nc(Cl)c(S(=O)(=O)NC3CC3)s2)cc1`: 183 °C; for `Cc1nc(N(CCN(C)C)C(=O)Nc2ccc(-c3ccccc3)cc2)sc1S(=O)(=O)N(C)C(=O)Nc1ccc(-c2ccccc2)cc1`: 190 °C.
The same measure for `CNS(=O)(=O)c1sc(N(C)C(=O)Nc2ccc(N3CCOCC3)cc2)nc1Cl`: 228 °C; for `CCc1nc(N(C)C(=O)Nc2ccc(-c3ccccc3)cc2)sc1S(=O)(=O)NC`: 204 °C.
`CCOc1ccc(NC(=O)N(CCCN2CCCC2=O)c2nc(C)c(S(=O)(=O)NC)s2)cc1` had a melting point of 188 °C.
The same measure for `Cc1nc(N(C)C(=O)Nc2ccc(N3CCOCC3)cc2)sc1S(=O)(=O)N(C)Cc1ccccn1`: 148 °C; for `CN(C)C(=O)Nc1ccc(NC(=O)N(C)c2nc(Cl)c(S(=O)(=O)N(C)C)s2)cc1`: 240 °C; for `Cc1nc(N(C)C(=O)Nc2ccc(N3CCOCC3)cc2)sc1S(=O)(=O)NC1CC1`: 235 °C.
Turning to `CCCOc1ccc(NC(=O)N(CCN(C)C)c2nc(C)c(S(=O)(=O)NC)s2)cc1`, the melting point was 165 °C.
The same measure for `CN(C(=O)Nc1ccc(-n2ccnn2)cc1)c1nc(Cl)c(S(=O)(=O)N(C)C)s1`: 225 °C; for `CCOc1ccc(NC(=O)N(C)c2nc(C)c(S(=O)(=O)NC(C)C)s2)cc1`: 192 °C; for `CNS(=O)(=O)c1sc(N(Cn2ccnc2)C(=O)Nc2ccc(-c3ccccc3)cc2)nc1C`: 205 °C.
The same measure for `CCOc1ccc(NC(=O)N(C)c2nc(C)c(S(N)(=O)=O)s2)cc1`: 196 °C; for `Cc1nc(N(C)C(=O)Nc2ccc(C3=NOCCO3)cc2)sc1S(=O)(=O)NC1CC1`: more than 225 °C.
`CCOc1ccc(NC(=O)N(C)c2nc(Cl)c(S(=O)(=O)NCN3CCCCC3)s2)cc1`: the melting point is 183 °C.
The same measure for `CCOc1ccc(NC(=O)N(CCn2ccnn2)c2nc(C)c(S(=O)(=O)NC)s2)cc1`: 188 °C; for `CNS(=O)(=O)c1sc(N(CCOC)C(=O)Nc2ccc(N3CCCC3)cc2)nc1C`: 184 °C; for `CSc1ccc(NC(=O)N(C)c2nc(Cl)c(S(=O)(=O)N(C)C)s2)cc1`: 194 °C.
The same measure for `CCOc1ccc(NC(=O)N(C)c2nc(C)c(S(=O)(=O)N(C)CC)s2)cc1`: 163 °C; for `CCc1nc(N(C)C(=O)Nc2ccc(N3CCOCC3)cc2)sc1S(=O)(=O)N(C)C`: 199 °C; for `CCOc1ccc(NC(=O)N(CC2COc3ccccc3O2)c2nc(C)c(S(=O)(=O)NC3CC3)s2)cc1` (stereo not shown): 170 °C.
The figure for `Cc1nc(N(C)C(=O)Nc2ccc(N3CCCCC3)cc2)sc1S(=O)(=O)N(C)C` is 185 °C; for `CNS(=O)(=O)c1sc(N(C)C(=O)Nc2ccc(N3CCCCC3)cc2)nc1C` it is 157 to 160 °C (dec.); for `CCOC(=O)N1CC2CCC(c3ccc(NC(=O)N(C)c4nc(C)c(S(=O)(=O)N(C)C)s4)cc3)C2C1` (stereo not shown) it is 136 to 137 °C.
For `CCCN(C(=O)Nc1ccc(-c2ccccc2)cc1)c1nc(C)c(S(=O)(=O)NCC(F)(F)F)s1`, the melting point was 146 °C.
As to `CCCN(C(=O)Nc1ccc(-c2ccccc2)cc1)c1nc(C)c(S(=O)(=O)NCC)s1`, the melting point came to 160 °C.
The figure for `Cc1nc(N(C)C(=O)Nc2ccc(-c3cccn3C(=O)OC(C)(C)C)cc2)sc1S(=O)(=O)N(C)C` is 84 °C; for `CCCOc1ccc(NC(=O)N(C)C2=CC(C)=C(S(N)(=O)=O)C2)cc1` it is 200 °C.
